The test system of this test is 186277-243-T-J2-PDC spheroids with HUVEC/MSC, viability. Briefly: Anticancer human tumor 186277-243-T-J2-PDC patient-derived colon adenocarcinoma cell line growth inhibition [CLK]. As to conditions: for viability, T/C: stronger effect = lower value. The essentials: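 Patient-derived tumor cells grown as complex spheroids with HUVEC endothelial cells and mesenchymal stem cells, treated with drug combinations. Concentrations descend in half-log steps from near clinical Cmax, or from 10 microM if Cmax unknown.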

[1] abbreviates: curve of first compound, second compound 0.0316 µM.
[2] abbreviates: curve of first compound, second compound 0.1 µM.
The mark [3] stands for this setting: curve of first compound, second compound 0.316 µM.
[4] abbreviates: curve of first compound, second compound 1 µM.
Setting [5] is: curve of first compound, second compound 3.16 µM.
Where [6] appears, read: curve of first compound, second compound 10 µM.
Where [7] appears, read: second compound 0.0316 µM, first compound 0.0316 µM.
The mark [8] stands for this setting: second compound 0.0316 µM, first compound 0.1 µM.
[9] abbreviates: second compound 0.0316 µM, first compound 0.316 µM.
Setting [10] is: second compound 0.0316 µM, first compound 1 µM.
Setting [11] is: second compound 0.0316 µM, first compound 3.16 µM.
The mark [12] stands for this setting: second compound 0.0316 µM, first compound 10 µM.
The mark [13] stands for this setting: second compound 0.1 µM, first compound 0.0316 µM.
[14] abbreviates: second compound 0.1 µM, first compound 0.1 µM.
Where [15] appears, read: second compound 0.1 µM, first compound 0.316 µM.
Where [16] appears, read: second compound 0.1 µM, first compound 1 µM.
Where [17] appears, read: second compound 0.1 µM, first compound 3.16 µM.
[18] abbreviates: second compound 0.1 µM, first compound 10 µM.
Where [19] appears, read: second compound 0.316 µM, first compound 0.0316 µM.
[20] abbreviates: second compound 0.316 µM, first compound 0.1 µM.
Setting [21] is: second compound 0.316 µM, first compound 0.316 µM.
The mark [22] stands for this setting: second compound 0.316 µM, first compound 1 µM.
The mark [23] stands for this setting: second compound 0.316 µM, first compound 3.16 µM.
Setting [24] is: second compound 0.316 µM, first compound 10 µM.
[25] abbreviates: second compound 1 µM, first compound 0.0316 µM.
[26] abbreviates: second compound 1 µM, first compound 0.1 µM.
Where [27] appears, read: second compound 1 µM, first compound 0.316 µM.
[28] abbreviates: second compound 1 µM, first compound 1 µM.
Setting [29] is: second compound 1 µM, first compound 3.16 µM.
Where [30] appears, read: second compound 1 µM, first compound 10 µM.
Setting [31] is: second compound 3.16 µM, first compound 0.0316 µM.
Setting [32] is: second compound 3.16 µM, first compound 0.1 µM.
Setting [33] is: second compound 3.16 µM, first compound 0.316 µM.
Setting [34] is: second compound 3.16 µM, first compound 1 µM.
[35] abbreviates: second compound 3.16 µM, first compound 3.16 µM.
Setting [36] is: second compound 3.16 µM, first compound 10 µM.
[37] abbreviates: second compound 10 µM, first compound 0.0316 µM.
The mark [38] stands for this setting: second compound 10 µM, first compound 0.1 µM.
[39] abbreviates: second compound 10 µM, first compound 0.316 µM.
Setting [40] is: second compound 10 µM, first compound 1 µM.
Setting [41] is: second compound 10 µM, first compound 3.16 µM.
Where [42] appears, read: second compound 10 µM, first compound 10 µM.

“And” between values parts separate entries of the source, which are not always exact repeats. Equal entries are not always repeated.
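Further: compound exposure lasted seven days before readout.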
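Wherever viability, T/C is given: 100% = DMSO vehicle control wells.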

Take `C=CC(=O)Nc1cc(Nc2nccc(-c3cn(C)c4ccccc34)n2)c(OC)cc1N(C)CCN(C)C`: the viability, T/C was 84.2% and 100% (compound 0.000949 µM); 98.2% and 101% (compound 0.003 µM); 84.3% and 112% (compound 0.00949 µM); 82.3% and 97.6% (compound 0.03 µM); 83.6% and 116% (compound 0.0949 µM); 87.2% and 95.1% (compound 0.3 µM). The IC50 (curve of compound) is more than 0.3 µM.

As to `CC1COCCN1c1cc(C2(S(C)(=N)=O)CC2)nc(-c2ccnc3[nH]ccc23)n1` (configuration not stated) + CN1CCN(c2cc(C(=O)Nc3cc4cc(-c5cnn(C)c5)ccc4cn3)ccn2)CC1, the IC50 reads like this: under setting [1], 2.25 µM; under setting [2], 1.32 µM; under setting [3], less than 0.0316 µM; under setting [4], less than 0.0316 µM; under setting [5], less than 0.0316 µM; under setting [6], less than 0.0316 µM. Moreover, the viability, T/C under setting [7] was 93.4%; the viability, T/C under setting [8] is 86.8%; the viability, T/C under setting [9] was 105%; the viability, T/C under setting [10] was 95%; the viability, T/C under setting [11] is 31.2%; the viability, T/C under setting [12] was 11.2%. Further, the viability, T/C reads like this: under setting [13], 76.9%; under setting [14], 80.5%; under setting [15], 74.2%; under setting [16], 59.1%; under setting [17], 22.6%; under setting [18], 10.5%. Besides, the viability, T/C reads like this: under setting [19], 23.9%; under setting [20], 25.9%; under setting [21], 24.3%; under setting [22], 24.7%; under setting [23], 19.7%; under setting [24], 12.6%. For the same compound, the viability, T/C is 0.89% under setting [25]; 0.78% under setting [26]; 0.7% under setting [27]; 1.08% under setting [28]; 1.18% under setting [29]; 1.33% under setting [30]. The viability, T/C is 1.91% under setting [31]; 1.72% under setting [32]; 1.28% under setting [33]; 1.01% under setting [34]; 1.48% under setting [35]; 2.05% under setting [36]. The viability, T/C by setting is: under setting [37], 0.93%; under setting [38], 0.87%; under setting [39], 1.19%; under setting [40], 1.26%; under setting [41], 1.01%; under setting [42], 1.14%.

On to `Nc1ccn(C2OC(CO)C(O)C2(F)F)c(=O)n1` (configuration not stated), for which the viability, T/C (compound 0.0316 µM) was 15.6% and 11.9%; the viability, T/C (compound 0.1 µM) was 15.7% and 12.4%; the viability, T/C (compound 0.316 µM) was 15.3% and 12.4%; the viability, T/C (compound 1 µM) was 17.3% and 13.5%; the viability, T/C (compound 3.16 µM) is 19% and 14%; the viability, T/C (compound 10 µM) is 20.5% and 13.1%. Further, where the note is “curve of compound”, the IC50 was less than 0.0316 µM.

For `CC(CO)NC(=O)c1cc(-c2ccc(Cl)cc2)nn(-c2cnn(C)c2)c1=O` (configuration not stated) + CNC(=O)c1ccc(Nc2nc(OC3CCCC3)c3c(-c4ccc5nc(C)oc5c4)c[nH]c3n2)c(OC)c1, the IC50 by setting is: under setting [1], more than 10 µM; under setting [2], more than 10 µM; under setting [3], less than 0.0316 µM; under setting [4], less than 0.0316 µM; under setting [5], less than 0.0316 µM; under setting [6], less than 0.0316 µM. For the same compound, the viability, T/C was 109% under setting [7]; 99.1% under setting [8]; 101% under setting [9]; 84.7% under setting [10]; 105% under setting [11]; 120% under setting [12]. Besides, the viability, T/C is 75.8% under setting [13]; 70.5% under setting [14]; 72.3% under setting [15]; 71.8% under setting [16]; 74% under setting [17]; 81.5% under setting [18]. Moreover, the viability, T/C was 50% under setting [19]; 45.4% under setting [20]; 43.1% under setting [21]; 49% under setting [22]; 49.6% under setting [23]; 47.8% under setting [24]. In addition, the viability, T/C reads like this: under setting [25], 28.9%; under setting [26], 31.6%; under setting [27], 29.6%; under setting [28], 32.4%; under setting [29], 35.6%; under setting [30], 36%. For the same compound, the viability, T/C under setting [31] is 33.3%; the viability, T/C under setting [32] was 30.7%; the viability, T/C under setting [33] is 29.1%; the viability, T/C under setting [34] was 31.7%; the viability, T/C under setting [35] was 32%; the viability, T/C under setting [36] was 35%. The viability, T/C by setting is: under setting [37], 32.5%; under setting [38], 31.4%; under setting [39], 32%; under setting [40], 31.4%; under setting [41], 34.3%; under setting [42], 31.5%.

`CC1(C)CCC(CN2CCN(c3ccc(C(=O)NS(=O)(=O)c4ccc(NCC5CCOCC5)c([N+](=O)[O-])c4)c(Oc4cnc5[nH]ccc5c4)c3)CC2)=C(c2ccc(Cl)cc2)C1`: the viability, T/C is 94.3% and 88.2% (compound 0.0316 µM); 85.8% and 90.3% (compound 0.1 µM); 97% and 104% (compound 0.316 µM); 86.5% and 99.3% (compound 1 µM); 106% and 110% (compound 3.16 µM); 10.5% and 10% (compound 10 µM). The IC50 (curve of compound) was 5.8 µM and 5.95 µM.

`NC(=O)C(=Cn1cnc(-c2cc(C(F)(F)F)cc(C(F)(F)F)c2)n1)c1cncnc1`: the viability, T/C (compound 0.00949 µM) is 88.2% and 88.1%; the viability, T/C (compound 0.03 µM) is 84.5% and 87.8%; the viability, T/C (compound 0.0949 µM) was 113% and 107%; the viability, T/C (compound 0.3 µM) is 18.2% and 10.8%; the viability, T/C (compound 0.949 µM) was 4.07% and 5.27%; the viability, T/C (compound 3 µM) is 1.81% and 3.46%. The IC50 (curve of compound) was 0.186 µM and 0.175 µM.

The values above are taken from PubChem BioAssay AID2060625 (Molecular Pharmacology Branch, DTP, NCI, 2025).
